Consider eight compounds from patent publication US10752588B2 (The Broad Institute, Inc., priority 2014, dated 2020).

For data set [1], the target named is T1, human D2R/β-arrestin (Homo sapiens (Human), UniProt P14416). Description: β-Arrestin agonist assay (PathHunter). The data set is classed as cell-based. The settings on record: CHO-K1 cell line expressing human D2R/β-arrestin. In short, it runs like this: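 Readout follows addition of Buffer:Emerald II:Galactor-Star reagent (19:5:1) to agonist-treated plates, measured as luminescence or fluorescence.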
T1 sequence (P14416 whole entry): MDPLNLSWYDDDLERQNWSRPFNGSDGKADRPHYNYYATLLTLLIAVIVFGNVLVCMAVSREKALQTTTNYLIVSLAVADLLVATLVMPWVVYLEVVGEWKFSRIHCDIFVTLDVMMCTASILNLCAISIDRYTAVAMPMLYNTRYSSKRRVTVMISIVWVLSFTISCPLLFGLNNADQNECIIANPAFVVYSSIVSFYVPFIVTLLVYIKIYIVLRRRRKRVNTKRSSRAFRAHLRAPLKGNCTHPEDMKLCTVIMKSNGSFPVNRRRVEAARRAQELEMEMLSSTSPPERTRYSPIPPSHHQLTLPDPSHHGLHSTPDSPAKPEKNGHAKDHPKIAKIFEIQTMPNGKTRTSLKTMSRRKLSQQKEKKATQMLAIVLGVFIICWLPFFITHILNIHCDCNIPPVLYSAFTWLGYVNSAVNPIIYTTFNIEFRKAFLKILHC

In data set [2] the target is T1, human D2R/β-arrestin. The data set is described as follows: Gi/cAMP agonist assay (Lance Ultra cAMP, Forskolin). The class given is cell-based. The settings on record: CHO-K1 cell line expressing human D2R/β-arrestin. In short, it runs like this:
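Read-out was Lance Ultra competitive TR-FRET (Eu-cAMP tracer plus ULight-anti-cAMP) following forskolin-induced cAMP production. Before forskolin stimulation, compounds were pin-transferred onto the seeded cells for 10 min at 37 °C.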

The next data set is described as follows: Solubility in PBS. The class given is physicochemical. The note with it: aqueous buffer.
A short description of data set [3]: Plasma protein binding, human. The note with it: plasma, read-out: Plasma Protein Binding % bound. The class given is in vitro ADME.
Data set [4] is described as follows: Plasma protein binding, mouse. The data set is classed as in vitro ADME. The note with it: plasma, read-out: Plasma Protein Binding % bound.
Data set [5] can be described thus: Plasma protein binding, rat. The class given is in vitro ADME. The settings on record: plasma, read-out: Plasma Protein Binding % bound.
A short description of a further data set: Plasma stability, human. The data set is classed as in vitro ADME.
The nature of a further data set: Plasma stability, rat. The data set is classed as in vitro ADME.
The nature of data set [6]: Microsomal stability, human. The class given is in vitro ADME.
A short description of data set [7]: Microsomal stability, rat. The data set is classed as in vitro ADME.
In data set [8] the target is T1, human D2R/β-arrestin. Description: cell-based. The note with it: β-arrestin Antagonist, CHO-K1 cell line expressing human D2R/β-arrestin; quinpirole used as agonist.
The target in data set [9] is T1, human D2R/β-arrestin. Description: cell-based. The note with it: cAMP Antagonist, CHO-K1 cell line expressing human D2R/β-arrestin; quinpirole used as agonist.
Experimental: The detection reagents are then added, and the read-out is detected.
Cells were prepared for assays by growing cultures for up to 2 weeks (from about 6-20 passages). A vial of frozen cells was thawed in a water bath held at 37° C. The cells were then transferred into a 50 ml tube with 10 ml growth media. The vial was rinsed with growth media and the contents transferred to the 50 ml tube. The 50 ml tube was centrifuged at 1200 rpm for 5 minutes at room temperature. […] When the cells reached about 90% confluence (approximately 3 days between passages), the cells were passaged and used for either the agonist or antagonist assays as described below.
The cells were prepared for Gi/cAMP assays as described above. The assays were performed using a PE Lance Ultra cAMP kit (TRF0263). The cells were grown on 225 mm dishes, then washed once with 1×PBS (Cellgro) before digestion with 2.5 ml 1× Detachment reagent (DRX 92-0009) for about 2 minutes. PBS (20 ml) was then added to the plate, and the cells were transferred to a 50 ml centrifuge tube, and centrifuged at room temperature using BD Dynac III, at 1200 rpm for 5 minutes. […] The plates were then incubated at room temperature for about 30 minutes before addition of Eu-cAMP tracer solution (100, PerkinElmer) and then ULight-anti-cAMP solution (100) to each well.
Data set [10] can be described thus: Microsomal stability, mouse.
For the next data set, the system named is Caco2. The data set is described as follows: Caco2 permeability. The data set is classed as in vitro ADME. On the set-up: unit not given beside the values. The note with it: for Caco2 A-B: A-B direction; for Caco2 B-A: B-A direction. Background: Passage across Caco-2 layers is used to estimate intestinal permeability.
In data set [11] the test system is plasma protein. The data set is described as follows: Plasma protein binding, human. The data set is classed as in vitro ADME. The note with it: plasma, read-out: Plasma Protein Binding % bound.
The subject of data set [12] is plasma protein. The data set is described as follows: Plasma protein binding, mouse. The settings on record: plasma, read-out: Plasma Protein Binding % bound. The data set is classed as in vitro ADME.
The subject of data set [13] is plasma protein. The data set is described as follows: Plasma protein binding, rat. The class given is in vitro ADME. The settings on record: plasma, read-out: Plasma Protein Binding % bound.
The target of another data set is D2 (Homo sapiens (Human), UniProt P14416). Description: D2 radioligand binding assay.
Chain of D2 (P14416 whole entry): as above
The target of data set [14] is T1, human D2R/β-arrestin. The settings on record: CHO-K1 cell line expressing human D2R/β-arrestin, β-arrestin and Gi/cAMP pathways, FIG. 1.

Molecules are shown by their SMILES. Converted amounts (≈) assume the structure as drawn.

As usually defined, the EC50 is the concentration needed to bring the measured effect to its halfway point. One may read the solubility as how much of the substance goes into solution per volume. For orientation: IC50 means the concentration needed to halve the response being measured. With `O=C(NC(c1ccc(Cl)cc1)c1ccccn1)C1CCN(CCCc2ccccc2)CC1` (stereo not shown) [Compound 18, N-((4-chlorophenyl)(pyridin-2-yl)methyl)-1-(3-phenylpropyl)piperidine-4-carboxamide], the EC50 on human D2R/β-arrestin [1] was > 30000 nM; at human D2R/β-arrestin [2], 100 to 1000 nM. Further, the concentration in solution in “Solubility in PBS” (solubility) was 352 µM (≈ 158 µg/mL). Besides, the results for the fraction unbound in data set [3], in [4] and in [5] were 0.046, 0.056 and 0.027, respectively. For the same compound, the “Plasma Stability: % remaining after 5 hours” value (from here on “Plasma Stability: % remaining”) in the data set “Plasma stability, human” stood at 94.9%; in the data set “Plasma stability, rat” it was 93.2%; in “Plasma stability, mouse”, 90.5%. Besides, the “Microsomal Stability: % remaining after 60 minutes” value (shortened to “Microsomal Stability: % remaining”) in data set [6] was found to be 78%; in [7], 55%; in [10], 43%. The IC50 at human D2R/β-arrestin [8] was 1000 to 10000 nM; at human D2R/β-arrestin [9], > 30000 nM.
For `O=C(NC(c1ccccn1)C1CCCCC1)C1CCN(CCOc2ccccc2)CC1` (stereo not shown) [Compound 37, N-(cyclohexyl(pyridin-2-yl)methyl)-1-(2-phenoxyethyl)piperidine-4-carboxamide], the EC50 on human D2R/β-arrestin [1] and at human D2R/β-arrestin [2] was > 30000 nM throughout. Besides, the solubility in the data set “Solubility in PBS” turned out to be 197 µM (≈ 83.1 µg/mL). For the same compound, the fraction unbound in [3] worked out at 0.047; in [4] it was 0.051; in data set [5], 0.024. Further, the “Plasma Stability: % remaining” value in the data set “Plasma stability, human” was found to be 100%; in the data set “Plasma stability, rat” it was 100%; in the data set “Plasma stability, mouse”, 98%. Further, the “Microsomal Stability: % remaining” value in data set [6] worked out at 71%; in data set [7], 28%; in data set [10], 31%. The IC50 was in the range of 100 to 1000 nM on human D2R/β-arrestin [8] and 1000 to 10000 nM at human D2R/β-arrestin [9].
What is called Ki is a measure of affinity in units of concentration, obtained from inhibition or displacement. For `O=C(NC(c1ccc(F)cc1)c1ccccn1)C1CCN(CCOc2ccccc2Cl)CC1` (stereo not shown) [Compound 53, 1-(2-(2-chlorophenoxy)ethyl)-N-((4-fluorophenyl)(pyridin-2-yl)methyl) piperidine-4-carboxamide], the EC50 at human D2R/β-arrestin [1] and at human D2R/β-arrestin [2] was > 30000 nM each time. The “Caco2 A-B” value in the data set with Caco2 was found to be 27.4. The “Caco2 B-A” value in the data set on Caco2 is on record as 23.9. The amount in solution in “Solubility in PBS” (solubility) came to 149 µM (≈ 69.7 µg/mL). The fraction unbound in the data set on plasma protein [11] amounted to 0.21; with plasma protein [12], 0.021; in the data set on plasma protein [13], 0.086. Besides, the “Plasma Stability: % remaining” value in “Plasma stability, human” is recorded as 100%; in “Plasma stability, rat” it was 78%; in the data set “Plasma stability, mouse” it was 96%. Further, the “Microsomal Stability: % remaining” value amounted to 42% in [6], 16% in [7] and 3% in data set [10]. The compound also gave an inhibition constant Ki on D2 of 100 to 1000 nM. The IC50 at human D2R/β-arrestin [8] and on human D2R/β-arrestin [9] was < 100 nM throughout.
As to `O=C(NC(c1ccc(Cl)cc1)c1ccccn1)C1CCN(CCOc2ccccc2)CC1` (stereo not shown) [Compound 63, N-((4-chlorophenyl)(pyridin-2-yl)methyl)-1-(2-phenoxyethyl)piperidine-4-carboxamide], the EC50 at human D2R/β-arrestin [1] is > 30000 nM; on human D2R/β-arrestin [2], 100 to 1000 nM. The “Caco2 A-B” value with Caco2 is 25.1. Further, the “Caco2 B-A” value in the data set on Caco2 was determined as 19.9. The compound also registered a solubility in “Solubility in PBS” of 476 µM (≈ 214 µg/mL). The fraction unbound in data set [3] amounted to 0.037; in data set [4], 0.026. Moreover, the “Plasma Stability: % remaining” value in the data set “Plasma stability, human” was 94.5%; in the data set “Plasma stability, mouse”, 93.4%. Further, the “Microsomal Stability: % remaining” value is 58% in [6], 55% in [7] and 37% in data set [10]. At D2, this compound had a Ki of 100 to 1000 nM. For the same compound, the “functional profile at D2R (antagonist mode)” value at human D2R/β-arrestin [14] is “representative β-arrestin biased D2R antagonists”. The IC50 was 100 to 1000 nM at human D2R/β-arrestin [8] and > 30000 nM on human D2R/β-arrestin [9].
As for `O=C(NC(c1ccc(Cl)cc1)c1cccnc1)C1CCN(CCOc2ccccc2)CC1` (stereo not shown) [Compound 111, N-((4-chlorophenyl)(pyridin-3-yl)methyl)-1-(2-phenoxyethyl)piperidine-4-carboxamide], the figures for the 50% effective concentration (EC50) at human D2R/β-arrestin [1] and at human D2R/β-arrestin [2] were > 30000 nM and 100 to 1000 nM, respectively. Moreover, the fraction unbound stood at 0.053 in data set [3], 0.027 in data set [4] and 0.022 in data set [5]. Further, the “Plasma Stability: % remaining” value was 100% in the data set “Plasma stability, human”; 98% in “Plasma stability, rat”; 100% in “Plasma stability, mouse”. Besides, the “Microsomal Stability: % remaining” value in [6] was found to be 60%; in data set [7] it was 51%; in data set [10] it was 39%. The IC50 is 100 to 1000 nM on human D2R/β-arrestin [8] and > 30000 nM at human D2R/β-arrestin [9].
Turning to `O=C(NC(c1ccncc1)c1ccc(Cl)cc1)C1CCN(CCOc2ccccc2)CC1` (stereo not shown) [Compound 112, N-((4-chlorophenyl)(pyridin-4-yl)methyl)-1-(2-phenoxyethyl)piperidine-4-carboxamide], the EC50 is > 30000 nM at human D2R/β-arrestin [1] and < 100 nM on human D2R/β-arrestin [2]. Also, the solubility in the data set “Solubility in PBS” worked out at 19 µM (≈ 8.55 µg/mL). The results for the fraction unbound in data set [3], in data set [4] and in data set [5] were 0.064, 0.05 and 0.02, respectively. The “Plasma Stability: % remaining” value was 100% in the data set “Plasma stability, human”; 95% in “Plasma stability, rat”; 95% in “Plasma stability, mouse”. Further, the “Microsomal Stability: % remaining” value in [6] is reported as 52%; in [7], 53%; in data set [10], 29%. Also, the values for the IC50 at human D2R/β-arrestin [8] and on human D2R/β-arrestin [9] were 1000 to 10000 nM and > 30000 nM, respectively.
As to `Clc1ccc(C(NCC2CCN(CCOc3ccccc3)CC2)c2ccccn2)cc1` (stereo not shown) [Compound 114, 1-(4-chlorophenyl)-N-((1-(2-phenoxyethyl)piperidin-4-yl)methyl)-1-(pyridin-2-yl)methanamine], the EC50 on human D2R/β-arrestin [1] and at human D2R/β-arrestin [2] was > 30000 nM in each case. Further, the fraction unbound in [3] turned out to be 0.014; in [4], 0.023; in data set [5], 0.005. Further, the “Plasma Stability: % remaining” value in the data set “Plasma stability, human” is recorded as “h100, m100, r100%”; in “Plasma stability, rat”, “h100, m100, r100%”; in the data set “Plasma stability, mouse”, “h100, m100, r100%”. For the same compound, the “Microsomal Stability: % remaining” value in data set [6] is 63%; in data set [7], 20%; in data set [10] it was 6%. Besides, the Ki at D2 lay within 100 to 1000 nM. For the same compound, the IC50 was 100 to 1000 nM at human D2R/β-arrestin [8] and < 100 nM on human D2R/β-arrestin [9].
Consider `COc1cccc(C(NC(=O)C2CCN(CCOc3ccccc3)CC2)c2ccccc2)c1` (stereo not shown) [Compound 146, N-((3-methoxyphenyl)(phenyl)methyl)-1-(2-phenoxyethyl)piperidine-4-carboxamide], for which the EC50 on human D2R/β-arrestin [1] and on human D2R/β-arrestin [2] was > 30000 nM in each case. In addition, the values for the fraction unbound in [3], in data set [4] and in [5] were 0.022, 0.04 and 0.021, respectively. Also, the “Plasma Stability: % remaining” value in the data set “Plasma stability, human” came to 98%; in “Plasma stability, rat”, 88%; in the data set “Plasma stability, mouse”, 96%. Further, the figures for the “Microsomal Stability: % remaining” value in data set [6], in [7] and in [10] were 56%, 27% and 36%, respectively. Also, the IC50 at human D2R/β-arrestin [8] and on human D2R/β-arrestin [9] was 1000 to 10000 nM in each case.
